Test results published in ChEMBL document CHEMBL1201862, “PubChem BioAssay data set” (2004).
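96-well plates; 48 h exposure; 5 concentrations. Endpoints by linear interpolation between flanking doses. Not reached: highest tested concentration assigned. GI50 marks 50% less growth.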 The source made the active and inactive calls. No stated cut-off is given here; in the data, active = GI50 up to about 1.1 µM and inactive = higher.

Columns and labels:
Assay in all cases: DTP human tumour cell line panel, 48 h
MCF7 = test system: MCF7
OVCAR-5 = test system: OVCAR-5
HOP-62 = test system: HOP-62
NCI/ADR-RES = test system: NCI/ADR-RES
MDA-MB-435 = test system: MDA-MB-435
BT-549 = test system: BT-549
NCI-H226 = test system: NCI-H226
CCRF-CEM = test system: CCRF-CEM
SNB-19 = test system: SNB-19
OVCAR-8 = test system: OVCAR-8
EKVX = test system: EKVX
COLO 205 = test system: COLO 205
SR = test system: SR
SW-620 = test system: SW-620
MDA-N = test system: MDA-N
HCT-116 = test system: HCT-116
SF-268 = test system: SF-268
NCI-H23 = test system: NCI-H23
UO-31 = test system: UO-31
HT-29 = test system: HT-29
A549 = test system: A549
U-251 = test system: U-251
KM12 = test system: KM12
DU-145 = test system: DU-145
T47D = test system: T47D
Malme-3M = test system: Malme-3M
SK-MEL-28 = test system: SK-MEL-28
NCI-H460 = test system: NCI-H460
HCT-15 = test system: HCT-15
RPMI-8226 = test system: RPMI-8226
HL-60 = test system: HL-60
UACC-257 = test system: UACC-257
MOLT-4 = test system: MOLT-4
K562 = test system: K562
TK-10 = test system: TK-10
SF-295 = test system: SF-295
786-0 = test system: 786-0
RXF 393 = test system: RXF 393
PC-3 = test system: PC-3
M14 = test system: M14
HOP-92 = test system: HOP-92
ACHN = test system: ACHN
SF-539 = test system: SF-539
OVCAR-3 = test system: OVCAR-3
SN12C = test system: SN12C
SNB-75 = test system: SNB-75
A498 = test system: A498
UACC-62 = test system: UACC-62
NCI-H522 = test system: NCI-H522
SK-MEL-5 = test system: SK-MEL-5
SK-OV-3 = test system: SK-OV-3
Hs-578T = test system: Hs-578T
MDA-MB-231 = test system: MDA-MB-231
SK-MEL-2 = test system: SK-MEL-2
HCC 2998 = test system: HCC 2998
CAKI-1 = test system: CAKI-1
IGROV-1 = test system: IGROV-1
LOX IMVI = test system: LOX IMVI
OVCAR-4 = test system: OVCAR-4

Q: How did the GI50 (MCF7) turn out when `Cc1ccc(/S(Cc2ccccc2)=N\S(=O)(=O)c2ccc(C)cc2)cc1` (configuration not stated) was run?
A: Its GI50 is > 100 µM (inactive).

Q: What about the GI50 (OVCAR-5) of the same molecule?
A: The GI50 was > 100 µM (inactive).

Q: And the GI50 (HOP-62)?
A: The GI50 was > 100 µM (inactive).

Q: What about the GI50 (NCI/ADR-RES) of the same molecule?
A: The GI50 was 50 µM (inactive).

Q: And the GI50 (MDA-MB-435)?
A: Its GI50 is > 100 µM (inactive).

Q: And the GI50 (BT-549)?
A: Its GI50 is > 100 µM (inactive).

Q: What about the GI50 (NCI-H226) of the same molecule?
A: The GI50 was > 100 µM (inactive).

Q: What about the GI50 (CCRF-CEM) of the same molecule?
A: Its GI50 is > 100 µM (inactive).

Q: What about the GI50 (SNB-19) of the same molecule?
A: The GI50 was > 100 µM (inactive).

Q: What about the GI50 (OVCAR-8) of the same molecule?
A: Its GI50 is > 100 µM (inactive).

Q: And the GI50 (EKVX)?
A: Its GI50 is > 100 µM (inactive).

Q: What about the GI50 (COLO 205) of the same molecule?
A: Its GI50 is > 100 µM (inactive).

Q: And the GI50 (SR)?
A: The GI50 was > 100 µM (inactive).

Q: And the GI50 (SW-620)?
A: Its GI50 is > 100 µM (inactive).

Q: And the GI50 (MDA-N)?
A: The GI50 was > 100 µM (inactive).

Q: And the GI50 (HCT-116)?
A: The GI50 was > 100 µM (inactive).

Q: What about the GI50 (SF-268) of the same molecule?
A: The GI50 was > 100 µM (inactive).

Q: What about the GI50 (NCI-H23) of the same molecule?
A: The GI50 was > 100 µM (inactive).

Q: What about the GI50 (UO-31) of the same molecule?
A: The GI50 was > 100 µM (inactive).

Q: What about the GI50 (HT-29) of the same molecule?
A: Its GI50 is > 100 µM (inactive).

Q: And the GI50 (A549)?
A: Its GI50 is > 100 µM (inactive).

Q: And the GI50 (U-251)?
A: The GI50 was > 100 µM (inactive).

Q: And the GI50 (KM12)?
A: Its GI50 is > 100 µM (inactive).

Q: What about the GI50 (DU-145) of the same molecule?
A: Its GI50 is > 100 µM (inactive).

Q: What about the GI50 (T47D) of the same molecule?
A: The GI50 was > 100 µM (inactive).

Q: And the GI50 (Malme-3M)?
A: Its GI50 is > 100 µM (inactive).

Q: And the GI50 (SK-MEL-28)?
A: The GI50 was > 100 µM (inactive).

Q: And the GI50 (NCI-H460)?
A: The GI50 was > 100 µM (inactive).

Q: And the GI50 (HCT-15)?
A: Its GI50 is 95.1 µM.

Q: And the GI50 (RPMI-8226)?
A: Its GI50 is > 100 µM (inactive).

Q: What about the GI50 (HL-60) of the same molecule?
A: The GI50 was > 100 µM (inactive).

Q: And the GI50 (UACC-257)?
A: The GI50 was > 100 µM (inactive).

Q: And the GI50 (MOLT-4)?
A: Its GI50 is 5.92 µM (inactive).

Q: What about the GI50 (K562) of the same molecule?
A: The GI50 was > 100 µM (inactive).

Q: What about the GI50 (TK-10) of the same molecule?
A: Its GI50 is > 100 µM (inactive).

Q: And the GI50 (SF-295)?
A: Its GI50 is > 100 µM (inactive).

Q: What about the GI50 (786-0) of the same molecule?
A: The GI50 was > 100 µM (inactive).

Q: And the GI50 (RXF 393)?
A: The GI50 was > 100 µM (inactive).

Q: And the GI50 (PC-3)?
A: The GI50 was > 100 µM (inactive).

Q: And the GI50 (M14)?
A: The GI50 was > 100 µM (inactive).

Q: What about the GI50 (HOP-92) of the same molecule?
A: The GI50 was > 100 µM (inactive).

Q: And the GI50 (ACHN)?
A: The GI50 was > 100 µM (inactive).

Q: And the GI50 (SF-539)?
A: Its GI50 is > 100 µM (inactive).

Q: What about the GI50 (OVCAR-3) of the same molecule?
A: Its GI50 is > 100 µM (inactive).

Q: And the GI50 (SN12C)?
A: The GI50 was > 100 µM (inactive).

Q: What does the source list for `CCCCC1c2c([nH]c3ccccc23)C2C(=O)N(c3ccc(OC)cc3)C(=O)C2C1CCC` (configuration not stated)?
A: GI50 (SNB-75): 2.55 µM (inactive); GI50 (A498): 3.4 µM (inactive); GI50 (UACC-62): 2.29 µM (inactive); GI50 (OVCAR-5): > 10 µM (inactive); GI50 (HOP-62): 3.69 µM (inactive); GI50 (NCI/ADR-RES): 2.96 µM (inactive); GI50 (MDA-MB-435): 2.24 µM (inactive); GI50 (NCI-H226): 5.02 µM (inactive); GI50 (CCRF-CEM): 3.66 µM (inactive); GI50 (NCI-H522): 6.28 µM (inactive); GI50 (SNB-19): 8.59 µM (inactive); GI50 (OVCAR-8): 2.65 µM (inactive); GI50 (EKVX): 3.56 µM (inactive); GI50 (COLO 205): 2.59 µM (inactive); GI50 (SR): 4.75 µM (inactive); GI50 (SW-620): 3.95 µM (inactive); GI50 (MDA-N): 3.02 µM (inactive); GI50 (HCT-116): 3.01 µM (inactive); GI50 (SK-MEL-5): 5.38 µM (inactive); GI50 (SF-268): 4.35 µM (inactive); GI50 (NCI-H23): 3.89 µM (inactive); GI50 (UO-31): 4.45 µM (inactive); GI50 (HT-29): 3.13 µM (inactive); GI50 (A549): 5.13 µM (inactive); GI50 (SK-OV-3): > 10 µM (inactive); GI50 (Hs-578T): 1.87 µM (inactive); GI50 (U-251): 8.71 µM (inactive); GI50 (KM12): 2.1 µM (inactive); GI50 (MDA-MB-231): 2.58 µM (inactive); GI50 (DU-145): 5.12 µM (inactive); GI50 (T47D): > 10 µM (inactive); GI50 (Malme-3M): 4.44 µM (inactive); GI50 (SK-MEL-28): 5.4 µM (inactive); GI50 (SK-MEL-2): 2.39 µM (inactive); GI50 (HCC 2998): 3.47 µM (inactive); GI50 (NCI-H460): 4.19 µM (inactive); GI50 (HCT-15): 3.6 µM; GI50 (RPMI-8226): 4.61 µM (inactive); GI50 (CAKI-1): 1.23 µM (inactive); GI50 (HL-60): 2.96 µM (inactive); GI50 (UACC-257): 3.61 µM (inactive); GI50 (IGROV-1): 4.56 µM (inactive); GI50 (MOLT-4): 2.74 µM (inactive); GI50 (K562): 3.29 µM (inactive); GI50 (TK-10): 4.37 µM (inactive); GI50 (SF-295): > 10 µM (inactive); GI50 (786-0): 4.39 µM (inactive); GI50 (RXF 393): 3.39 µM (inactive); GI50 (PC-3): 2.6 µM (inactive); GI50 (LOX IMVI): > 10 µM (inactive); GI50 (M14): 3.06 µM (inactive); GI50 (HOP-92): 3.03 µM (inactive); GI50 (OVCAR-4): 4.82 µM (inactive); GI50 (ACHN): 5.7 µM (inactive); GI50 (SF-539): 2.24 µM (inactive); GI50 (OVCAR-3): 3.36 µM (inactive); GI50 (SN12C): 2.18 µM (inactive)
